# Measurements from US8815535B2, “Disk diffusion assay for oritavancin” (The Medicines Company, priority 2011, dated 2014).
# “And” between values parts separate entries of the source, which are not always exact repeats. Equal values may be shown once. Read-outs that look alike come from different tables or passages of the source.
# Experiments:
# hVISA NRS2 [1] = assay: Disk diffusion assay (zone of inhibition); assay type: cell-based, Staphylococcus aureus; details: Staphylococcus aureus, NRS2, NRS2; for zone of inhibition at 1250 µg/mL: read-out: Inhibition zone diameter
# Excerpt: (§1) The study was designed to identify conditions that improve oritavancin diffusion in agar and consequently yield a zone diameter ≧15 mm for the CLSI quality control strain MSSA ATCC 25923. Excipients that increased the disk diffusion of oritavancin in agar relative to disks containing only oritavancin were identified and selected for further study. […] A prediffusion step at room temperature was introduced to maximize oritavancin diffusion prior to initiation of bacterial growth. In this step, the antimicrobial disks were placed on agar plates seeded with a bacterial isolate and incubated at room temperature for 3 hours. Plates were then incubated overnight at 37° C. Zone diameters around the disks in which bacterial growth was inhibited were measured with a ruler and reported in millimeters.
# (§2) Ethanol-sterilized Whatman paper disks (6 mm diameter) were allowed to dry then impregnated with 20 microliters of oritavancin solution containing total amounts ranging from 90 to 360 micrograms. Disks were allowed to dry at room temperature for various times prior to use.
# (§3) Bacterial suspensions were prepared and adjusted to an optical density of 0.1 at 600 nm. Standard cation-adjusted Mueller Hinton agar plates (90 mm diameter) were seeded with bacterial suspensions by initially swabbing the center of plate then moving outward towards the edge. The plate was swabbed a second time, perpendicular to the orientation of the first swab. To assess the impact of prediffusion on diameter of inhibition zones, two disks were immediately placed on one half of the plate and the plate was incubated for 3 hours at room temperature. After 3 hours, two additional disks were placed on the other half of the plate then the plate was incubated overnight at 37° C. Zone diameters were measured with a ruler and reported in millimeters.
# (§4) Oritavancin powder was dissolved in freshly-prepared solutions of the indicated excipients at concentrations of 0.625, 1.25, 2.5, 5, and 10 mg/ml (adjusted for potency based on lot 875561L00 purity of 83.1%) by vortexing for a minimum of 5 minutes. Oritavancin solutions in the various excipients, while not visually clear, were free from any apparent particulates as assessed visually. Sterile Oxoid blank disks were impregnated with 20 μl of these oritavancin solutions, resulting in oritavancin disk loads ranging from 12.5 to 200 μg. Unless indicated otherwise, disks were allowed to dry overnight at room temperature prior to use.
# (§5) Bacterial suspensions from isolated colonies on overnight cation-adjusted Mueller Hinton agar plates were prepared in sterile saline and adjusted to an optical density of 0.1 at 600 nm Standard cation-adjusted Mueller Hinton agar plates (90 mm diameter) were seeded with bacterial suspensions by initially swabbing the center of plate then moving outward. Swabbing was continued at a right angle and then at an oblique angle to the first and second swabs. Disks were placed upon the seeded plates with sterile forceps. Plates were then incubated overnight at 37° C. and inhibition zone diameters were measured with a ruler and reported in millimeters.
# MRSA U206056 = assay: Disk diffusion assay (zone of inhibition); assay type: cell-based, Staphylococcus aureus; details: for zone of inhibition at 360 µg/disc: read-out: Zone diameter (mm ± SD)
# Excerpt: as §1, §2, §3, §4, §5
# VISA NRS402 = assay: Disk diffusion assay (zone of inhibition); assay type: cell-based, Staphylococcus aureus; details: for zone of inhibition at 360 µg/disc: Staphylococcus aureus
# Excerpt: as §1, §2, §3, §4, §5
# hVISA NRS2 [2] = assay: Disk diffusion assay (zone of inhibition); assay type: cell-based; details: Staphylococcus aureus, Oxoid disks, 20 μl of 18 mg/ml oritavancin in 5% P80, stored 30 days at room temperature, prediffusion 6 hours at 4° C., read-out: Inhibition zone diameter
# S. aureus isolates = assay: Disk diffusion assay, panel of isolates; assay type: cell-based, Staphylococcus aureus
# Excerpt: as §1, §2, §3, §4, §5
# [3] = 360 μg in 5% P80, Average of experiments, no prediffusion, read-out: Zone diameter (mm ± SD)
# [4] = 360 μg in 5% P80, Average of experiments, prediffusion, read-out: Zone diameter (mm ± SD)
# [5] = 360 μg in 5% P80, Experiment 1, disks stored 14 days, 3 h prediffusion at room temperature, read-out: Zone diameter (mm ± SD)
# [6] = 360 μg in 5% P80, Experiment 2, disks stored 8 days, 3 h prediffusion at room temperature, read-out: Zone diameter (mm ± SD)
# [7] = 360 μg oritavancin, excipient 5% P80, disks stored 5 days at room temperature, 3 h prediffusion, average of 2 disks, read-out: Average zone diameter
# [8] = 25 μg (1.25 mg/ml) in 4% P80/Span 80 (1:1), dried overnight
structure (smiles),measurement,setting,value
"CN[C@H](CC(C)C)C(=O)N[C@H]1C(=O)N[C@@H](CC(N)=O)C(=O)N[C@H]2C(=O)N[C@H]3C(=O)N[C@H](C(=O)N[C@H](C(=O)O)c4cc(O)cc(O)c4-c4cc3ccc4O)[C@H](O[C@H]3C[C@](C)(N)[C@@H](O)[C@H](C)O3)c3ccc(c(Cl)c3)Oc3cc2cc(c3O[C@@H]2O[C@H](CO)[C@@H](O)[C@H](O)[C@H]2O[C@H]2C[C@](C)(NCc3ccc(-c4ccc(Cl)cc4)cc3)[C@@H](O)[C@H](C)O2)Oc2ccc(cc2Cl)[C@H]1O [oritavancin, N-(4-(4-chlorophenyl)benzyl)A82846B]",zone of inhibition at 360 µg/disc,hVISA NRS2 [1]; [3],14.9 ± 0.8 mm
same,zone of inhibition at 360 µg/disc,hVISA NRS2 [1]; [4],17.3 ± 0.3 mm
same,zone of inhibition at 360 µg/disc,hVISA NRS2 [1]; [5],17.5 mm
same,zone of inhibition at 360 µg/disc,hVISA NRS2 [1]; [6],17 mm
same,zone of inhibition at 360 µg/disc,hVISA NRS2 [1]; [7],17.8 mm
same,zone of inhibition at 1250 µg/mL,hVISA NRS2 [1]; 20 μl of 1.25 mg/ml oritavancin in 1% poly(ethylene glycol) sorbitol hexaoleate,9 mm
same,zone of inhibition at 1250 µg/mL,hVISA NRS2 [1]; 20 μl of 1.25 mg/ml oritavancin in 5% Brij 30,8 mm
same,zone of inhibition at 1250 µg/mL,hVISA NRS2 [1]; 20 μl of 1.25 mg/ml oritavancin in 5% Merpol SE,11 mm
same,Inhibition zone diameter,MRSA U206056; [8],"17 mm and 18, 18 mm"
same,zone of inhibition at 25 µg/disc,"MRSA U206056; Staphylococcus aureus, MRSA, 25 μg (1.25 mg/ml) in 4% P80/Span 80 (1:1), dried overnight, read-out: Inhibition zone diameter",18 mm
same,zone of inhibition at 360 µg/disc,"MRSA U206056; Staphylococcus aureus, MRSA, 360 μg in 5% P80, Average of experiments, no prediffusion",15 ± 0.6 mm
same,zone of inhibition at 360 µg/disc,"MRSA U206056; Staphylococcus aureus, MRSA, 360 μg in 5% P80, Average of experiments, prediffusion",17.4 ± 0.5 mm
same,zone of inhibition at 360 µg/disc,"MRSA U206056; Staphylococcus aureus, MRSA, 360 μg in 5% P80, Experiment 1, disks stored 14 days, 3 h prediffusion at room temperature",17.8 ± 0.4 mm
same,zone of inhibition at 360 µg/disc,"MRSA U206056; Staphylococcus aureus, MRSA, 360 μg in 5% P80, Experiment 2, disks stored 8 days, 3 h prediffusion at room temperature",17 mm
same,zone of inhibition at 360 µg/disc,"MRSA U206056; Staphylococcus aureus, MRSA, 192 h, 360 μg in 5% P80, Experiment 2, disks stored 8 days, no prediffusion",14.5 mm
same,zone of inhibition at 360 µg/disc,"MRSA U206056; Staphylococcus aureus, MRSA, 336 h, 360 μg in 5% P80, Experiment 1, disks stored 14 days, no prediffusion",15.5 mm
same,Inhibition zone diameter,VISA NRS402; [8],no zone
same,zone of inhibition at 360 µg/disc,VISA NRS402; [3],13.1 ± 0.3 mm
same,zone of inhibition at 360 µg/disc,VISA NRS402; [4],14.5 ± 0.4 mm
same,zone of inhibition at 360 µg/disc,VISA NRS402; [5],14.8 ± 0.4 mm
same,zone of inhibition at 360 µg/disc,VISA NRS402; [6],14.3 ± 0.4 mm
same,zone of inhibition at 360 µg/disc,VISA NRS402; [7],14.8 mm
same,zone of inhibition at 360 µg/disc,"VISA NRS402; 3 h, 360 μg oritavancin, excipient 10% HPCD, disks made same day, 3 h prediffusion, average of 2 disks, read-out: Average zone diameter",17.5 mm
same,zone of inhibition at 360 µg/disc,"VISA NRS402; 192 h, 360 μg in 5% P80, Experiment 2, disks stored 8 days, no prediffusion, read-out: Zone diameter (mm ± SD)",13 mm
same,zone of inhibition at 360 µg/disc,"VISA NRS402; 336 h, 360 μg in 5% P80, Experiment 1, disks stored 14 days, no prediffusion, read-out: Zone diameter (mm ± SD)",13.3 ± 0.4 mm
same,zone of inhibition at 18000 µg/mL,hVISA NRS2 [2],16.5 mm
same,Zone diameter smaller for the two reduced-susceptibility isolates compared to MSSA and MRSA isolates exhibiting the same BMD MICs,S. aureus isolates; 360 μg in 5% P80,approximately 2 mm
same,Average increase of zone diameter by prediffusion,"S. aureus isolates; MSSA and MRSA strains, 360 μg in 5% P80",approximately 2.5 mm
same,zone of inhibition at 1250 µg/mL,"S. aureus isolates; Staphylococcus aureus, 19 wild-type clinical isolates, 20 μl of 1.25 mg/ml in 4% P80/Span 80 (1:1), calcium alginate swabs, read-out: Inhibition zone diameters",20 to 24 mm
same,Average increase of zone diameter by prediffusion,"S. aureus isolates; VISA and oritavancin reduced-susceptibility isolates, 360 μg in 5% P80",approximately 1.1 mm
same,Zone diameters,"S. aureus isolates; many S. aureus strains, different combinations of the alterations to the traditional assay",> 15 mm
